Values of other authors as cited in patent publication US20050032891A1, “Method for treating alcoholic hepatitis” (University of Pittsburgh-of the Commonwealth System of …, priority 2003, published 2005).

System: rats subjected to hemorrhagic shock and resuscitation
Details: treatment with EP

CCOC(=O)C(C)=O [EP, ethyl pyruvate]
hepatic lipid peroxidation: decreases hepatic lipid peroxidation
